Source: US20150175585A1, “FUSED QUINONIC COMPOUNDS” (CENTRO ATLANTICO DEL MEDICAMENTO S.A (CEAMED, S.A.), priority 2012, published 2015)
Like-named read-outs stand apart in the source and are kept apart here.

What was measured:
[1] = system: K562 cells; settings: cited from earlier work
[2] = system: STAT5; settings: K562 cells, 30-100 μM; cited from earlier work
[3] = system: K562 cells; assay: K562-based MTT cell viability assay; design: species or system human; settings: 48 h, read-out: Activity (IC50, reduction of cell viability)
Procedure: (§1) Cell viability was assayed by measuring the mitochondrial reduction of the tetrazolium salt 3-(4,5-methyltiazol-2yl)-2,5diphenyl-tetrazolium bromide] (MTT) (Applichen; A2231,0010) (Mosmann T. J Immunol Methods. 1983 16; 65(1-2):55-63; Chuan Y-C et al 2010. Oncogene. 29 (10), 1531-1542. Cells were seeded in 96-well plates in medium supplemented with 10% FBS (Lonza Cat. No: 14-502F), 2 mM L-Glut (Lonza Cat. No: BE17-605E) and 100 U/ml PEST (Lonza Cat. No: DE17-605E) at a cell density of 5000-20000 cells/well. Cells were seeded at a density according to their exponential growth phase. Vehicle (0.05% DMSO) or drug were added to culture medium at the indicated concentrations (10 to 0.01 microM) during 48 h. Then, MTT (0.3 mg/ml) was added to cells following by incubation for 2-4 h at 37° C. in the dark. The medium was then discarded and the formazan precipitate was solubilized by addition of 20% SDS (Sigma; L-5750) in 0.02N HCl (Panreac; 131020.1611) for 12-16 h. The optical density was measured at 595 nm with the iMark Microplate Reader (BioRad, USA). Data was expressed as percent growth above the level in controls and the results in figures were plotted as means±SEM of each test point from 3 replicates.
(§2) Statistical analysis. The concentration of drug that provokes 50% reduction of cell viability (IC50) was determined by using non-linear regression analysis and data were fitted to a log concentration vs normalized response curve in GraphPad software v5 (San Diego, Calif.).

[4] = system: HEL cells; assay: HEL-based MTT cell viability assay; design: species or system human; settings: 48 h, read-out: Activity (IC50, reduction of cell viability)
Procedure: as §1, §2

[5] = system: STAT5 transcription (pSPI-GLE1-luc) in HEK-GHR cells; assay: HEK-GHR STAT5 transcription assay (luciferase reporter, rhGH stimulated); assay type: cell-based, human; settings: compound 45 minutes before 50 nM rhGH, six hours, read-out: Activity (IC50, reduction of luciferase activity)
Text: Plasmids: The full-length GHR was subcloned into pcDNA1/ampicillin (Invitrogen) as described previously (Ross R J, Esposito N, Shen X Y, et al., Mol Endocrinol 1997, 11:265-73). The pSPI-GLE1 (serine protease inhibitor 2.1 GAS-like element 1)-luc reporter construct was generated by subcloning the Stat5-binding element from serine protease inhibitor gene together with a minimal thymidine kinase promoter into the pGL2 plasmid (Promega), which contains the firefly luciferase cDNA (Wood T J, Sliva D, Lobie P E, et al. J Biol Chem 1995, 270:9448-53).
Cell culture: HEK-GHR cell line was maintained in Dulbecco's Modified Eagle Medium (DMEM)/F12 supplemented with 10% fetal bovine serum (FBS) and 50 U/ml penicillin/50 U/ml streptomycin. The cells were maintained in a humidified incubator with 5% CO2 at 37° C. Cell culture reagents were obtained from PAA laboratories. The HEK-GHR cell line is a stable clone generated and kindly donated by Prof. Richard Ross (Clinical Sciences, Northern General Hospital, Sheffield, UK). Briefly, HEK-GHR cell line was generated in HEK 293 cells (human kidney embryonal cell line) by transfection with the calcium phosphate procedure of the GHR plasmid with pcDNA3/Neo (Invitrogen). Selection was made using G418 (400 ug/ml, Sigma) (Maamra M, Finidori J, Von Laue S, et al., J Biol Chem 1999, 274(21):14791-8).
Luciferase reporter assay: Transcription assays were performed in HEK-GHR. The HEK-GHR cells were co-transfected with Stat5 luciferase (pSPI-GLE1-luc) reporter vector together with a plasmid constitutively expressing beta-galactosidase by using Metafectene Pro as described by the manufacturer (Biontex Laboratories GmbH, Munich, Germany). Following transfection, HEK-GHR cells were serum-starved for 20 h. Cells were then treated with vehicle (0.1% DMSO) or the indicated compound for 45 minutes prior to the addition of 50 nM recombinant human Growth Hormone (rhGH) (Norditropin, Novo Nordisk) to the medium. Six hours following rhGH addition, cells were harvested with Passive Lysis Buffer (Promega), and levels of luciferase were measured using Luciferase Assay System as described by the manufacturer (Promega). The Galacto-Light Plus System (Applied Biosystems) was used to measure beta-galactosidase activity.
Statistical analysis. The concentration of drug that provokes 50% reduction of luciferase activity (IC50) was determined by using non-linear regression analysis and data were fitted to a log concentration vs normalized response curve in GraphPad software v5 (San Diego, Calif.).

[6] = system: JAK2; assay: JAK2 phosphorylation western blot assay; assay type: cell-based, human; settings: 10 microM, HEL or K562 cells (table does not say which)
Procedure: (§3) The Human Erythroleukemia cell line HEL and the human Chronic Myeloid Leukemia cell line K562 were cultured in RPM I 1640 medium containing 10% fetal bovine serum (FBS) and 50 U/ml penicillin/50 U/ml streptomycin at 37° C. in a 5% CO2 humidified atmosphere to a density of 300.000 viable cells/mL in presence of WP1066 (positive control of phosphorylation inhibition) (Verstovsek et al., 2008) or CM-363 at concentrations of 1, 5 and 10 μM. Cell culture reagents were all obtained from BioWhittaker® (Lonza, Verniers, Belgium). Cell growth and viability was determined by propidium iodide (fluorescent dye) exclusion method using the Accuchip 4× Counting Kit and the ADAM automatic cell counter (Digital-Bio, NanoEntek, Ic., Washington St, Mass., USA).As a control of unspecific phosphorylation, some cells in each experiment were exposed to vehicle (negative control of phosphorylation inhibition) (0.1% DMSO).
(§4) For total protein extraction, cells were scraped with RIPA 1× lysis buffer (25 mM Tris-HCl pH 7.6, 150 mM NaCl, 1% NP-40, 1% sodium deoxycholate, 0.1% SDS, no. 89900, Thermo Scientific, Rockford, Ill., USA) supplemented with 1× protease and 1× phosphatase inhibitor cocktails (100× Halt™ Protease Inhibitor Cocktail, no. 87786 and 100× Halt Phosphatase Inhibitor Cocktail, no. 78420, both from Thermo Scientific, Rockford, Ill., USA). An aliquot of each extract was preserved for protein quantification by bicinchoninic acid assay (Pierce® BCA Protein Assay Kit, no. 23225, Thermo Scientific, Rockford, Ill., USA).
(§5) Proteins were solubilized in sample buffer containing 0.0625 M Tris-HCl, pH 6.8, 2.3% (wt/vol) SDS, 10% (vol/vol) glycerol, 5% (vol/vol) f3-mercaptoethanol, and 0.001% (wt/vol) bromophenol blue and boiled at 95° C. for 5 min. Equal amounts (50 μg) of each sample were electrophoresed on 8-10% sodium dodecyl sulfate-polyacrylamide gel electrophoresis (SDS-PAGE) and transferred to nitrocellulose membranes (iBlot® Gel Transfer Stacks, Nitrocellulose, no. IB4010-02, Invitrogen, Barcelona, Spain) as described previously (Fernandez, L, et al., Endocrinology, 13, 1815-1824, 1998; B. Guerra et al., J. Neurochem, 91, 99-109, 2004; B. Guerra et al., J. Appl. Physiol., 102, 1786-1792, 2007; B. Guerra et al., J. Appl. Physiol., 111, 715-725, 2011). The nitrocellulose membranes were then removed from the iBlot® Dry GelTransfer Device (no. IB1001EU, Invitrogen, Barcelona, Spain) and placed in a Ponceau S staining solution (0.5% Ponceau S and 1% glacial acetic acid in water) to verify equal loading of protein in the control and treated samples. After the membranes were stained for 5 min, they were rinsed for 2 min and examined. Equal loading of protein was verified, and the membranes were rinsed for an additional 10 min and immunoscreened. Membranes were blocked with 5% blotting grade blocker nonfat dry milk in Tris Buffered Saline with 0.05% Tween 20 (TBST; blotto-blocking buffer) for at least […]) at room temperature. They were washed thrice in TBS with 0.1% Tween 20 (TBST-0.1). Next, the membranes were incubated over night at 4° C. with the appropriate anti-phospho-antibodies (described below) all diluted (1:1000) in 1% bovine serum albumin (BSA)-1% blotto in TBST (BSA-blotto blocking buffer). […] Membranes were stripped of bound antibodies by incubation in stripping buffer (Restore™ Western Blot Stripping Buffer, no. 21059, Thermo Scientific, Rockford, Ill., USA) at room temperature for 30 min with agitation. Membranes were washed for 3×10 min in TBST-0.1, blocked with blotto-blocking buffer for at least 1 h and re-probed with the corresponding anti-total kinase antibodies (described below) all diluted (1:1000) in blotto-blocking buffer. […]

[7] = system: STAT5; assay: STAT5 phosphorylation western blot assay; assay type: cell-based, human; settings: 10 microM, HEL or K562 cells (table does not say which)
Procedure: as §3, §4, §5

IC50 [3] [µM]	SMILES	cell cycle phases in flow cytometry experiments [1]	tyrosine phosphorylation of STAT5 [2]	IC50 ([3]; Homo sapiens) [µM]	IC50 ([4]; Homo sapiens) [µM]	IC50 ([5]; Homo sapiens) [µM]	Activity (inhibition of JAK2 phosphorylation) [6]	IC50 [4] [µM]	Activity (inhibition of STAT5 phosphorylation) [7]	IC50 [5] [µM]
	COc1cc2ncnc(Nc3ccc(O)cc3)c2cc1OC [WHI-P131]	dose-dependent decrease in G1 and S phases and an increase in G2/M phases	caused a reduction in tyrosine phosphorylation of STAT5							
	N#Cc1ccc(C2C3=C(CCCC3=O)NC3=C2C(=O)c2ccccc2C3=O)cc1 (stereo not shown) [Compound 2, 4-(1,6,11-trioxo-1,2,3,4,5,6,11,12-octahydrobenzo[b]acridin-12-yl)benzonitrile]			< 1	< 3	< 1				
< 3	CC1(C)CC(=O)C2=C(C1)NC1=C(C(=O)c3ccncc3C1=O)C2c1ccccc1 (stereo not shown) [Compound 13]						++ (++represents an inhibition at 10 microM > 50%)	< 3	+++ (+++represents an inhibition at 10 microM > 75%)	< 5
	CC1(C)CC(=O)C2=C(C1)OC1=C(C(=O)c3ccccc3C1=O)C2c1ccc2c(c1)OCO2 (stereo not shown) [Compound 16, 12-(benzo[d][1,3]dioxol-5-yl)-3,3-dimethyl-3,4-dihydro-1H-benzo[b]xanthene-1,6,11(2H,12H)-trione]			< 3	< 3	< 5				
	O=C1CCCC2=C1C(c1ccc(Br)cc1)C1=C(N2)C(=O)c2ccccc2C1=O (stereo not shown) [Compound 26, 12-(4-bromophenyl)-3,4-dihydrobenzo[b]acridine 1,6,11(2H,5H,12H)-trione]			< 1	< 10	< 5			+ (+represents an inhibition at 10 microM > 50%)	
< 10	O=C1CCCC2=C1C(c1cccc(Br)c1)C1=C(N2)C(=O)c2ccccc2C1=O (stereo not shown) [Compound 27]						+ (+represents an inhibition at 10 microM > 30%)	< 3		< 5
	O=C1CCCC2=C1C(c1ccc(Cl)cc1)C1=C(N2)C(=O)c2ccccc2C1=O (stereo not shown) [Compound 1, 12-(4-chlorophenyl)-3,4-dihydrobenzo[b]acridine-1,6,11(2H,5H,12H)-trione]			< 10	< 3	< 5				
	CC1(C)CC(=O)C2=C(C1)OC1=C(C(=O)c3ccccc3C1=O)C2c1ccc(C#N)cc1 (stereo not shown) [Compound 3, 4-(3,3-dimethyl-1,6,11-trioxo-2,3,4,6,11,12-hexahydro-1H-benzo[b]xanthen-12-yl)benzonitrile]			< 1	< 1	< 1	++ (++represents an inhibition at 10 microM > 50%)		+++ (+++represents an inhibition at 10 microM > 75%)	
< 10	O=C1CCCC2=C1C(c1ccc3c(c1)OCO3)C1=C(N2)C(=O)c2ccccc2C1=O (stereo not shown) [Compound 18]						++ (++represents an inhibition at 10 microM > 50%)		+ (+represents an inhibition at 10 microM > 50%)	
	COc1ccc(C2C3=C(CCCC3=O)OC3=C2C(=O)c2ccccc2C3=O)cc1OC (stereo not shown) [Compound 15]						++ (++represents an inhibition at 10 microM > 50%)	< 1	++ (++represents an inhibition at 10 microM > 50%)	< 10
	O=C1CCCC2=C1C(c1ccoc1)C1=C(N2)C(=O)c2ccccc2C1=O (stereo not shown) [Compound 24]						+++ (+++represents an inhibition at 10 microM > 75%)	< 3	+ (+represents an inhibition at 10 microM > 50%)	< 5
